Experimental data from US9925134B2, “Use of substances to protect FGF-2 or FGF-beta growth factor” (BASF Beauty Care Solutions France SAS, priority 2007, dated 2018).
Values belong to the molecule of their own block, whether it stands above or below them.

How the values were obtained:
FGF-2 = FGF-2 (Homo sapiens, UniProt P09038); test: Protection of FGF-2 against thermal degradation, stress of 2.15 hrs at 45° C., FGF-2 dosed by ELISA kit; assay type: biochemical; details: 0.01%, 0.001%, further diluted 1/10, 45° C. 2.15 hrs; for FGF-2 protection by GAGs and proteoglycans of the skin (in words): solutions at 0.1%
Experimental: Degradation of FGF-2 observed at about 50° C. is particularly interesting, because a short period of time allows degradation of FGF-2 of about 80%, thereby allowing a large number of tests to be conducted. For this reason, it was decided to achieve screening with a stress of 2.15 hrs at 45° C. and to study the capacity of a large number of actives for protecting FGF-2 against this thermal degradation.
The applied screening model is the following: • 180 μl of a 4.5 ng/ml FGF-2 solution prepared in 0.1% BSA/PBS buffer are distributed in a 96-well microplate. 20 μl of distilled water or 0.05% heparin or a solution containing various active ingredients extracted from different plants to be tested are added. The plate is stirred by means of a plate stirrer and then covered with adhesive tape and placed in an oven at 45° C. for 2.15 hrs. At the end of the incubation period, the plate is taken out and dosage of FGF-2 is then carried out by means of the ELISA kit.
A control plate only containing FGF-2 and distilled water, treated under the same conditions, is left at room temperature.
The results are expressed as a FGF-2 protection percentage relatively to the non-stressed or non-degraded FGF-2 control.
The stress protocol described in Example 2 was applied, 20 μl of water being substituted with 20 μl of corresponding GAG or PG solution. The tested GAGs and PGs thereby undergo additional dilution to 1/10. […]

normal human fibroblasts [1] = test: Stimulation of synthesis of total GAGs, radioactive glucosamine incorporation; assay type: cell-based; details: TGF-β 10 ng/ml; 72 hrs
Experimental: (§1) Normal human fibroblasts stemming from a donor, were grown in 96-well plates with medium (consisting of DMEM, glutamine 2 mM, penicillin 50 IU/ml-streptomycin 50 μg/ml, 10% fetal calf serum) for 24 hrs. […] A control was made in parallel with the medium only.
After 48 hrs of contact, radioactive glucosamine (D-(6-^3H)-glucosamine) is added to the medium.
(§2) At the end of the experiment, the supernatants are collected for dosing the incorporation of radioactive glucosamine into the intracellular proteins. Dosage of the proteins is performed with a commercial kit (BioRad 500-0116).

normal human fibroblasts [2] = test: Stimulation of synthesis of sulfated GAGs, 35S-sulfate incorporation; assay type: cell-based; details: TGF-β 10 ng/ml
Experimental: as §1, §2
In the same way, a study of the incorporation of ^35S-sulfate is conducted for quantifying the sulfated GAGs. The applied procedure is the same as that for the total GAGs, except for the nature of the radioactive precursor.

[3] = tested on: normal human dermal fibroblasts; test: Fibroblast proliferation by FGF-2 protected by heparin or extract 5c (PNPP); assay type: cell-based; details: for Proliferation (expressed as percent relative to the non-treated well): 48 hrs, heparin 0.01% during 24 hrs at 37° C.
Experimental: A solution of FGF-2 is prepared extemporaneously (=non-degraded FGF-2); a solution of FGF-2 is placed for 24 hrse at 37° C. in the absence (=degraded FGF-2) and in the presence of heparin (=FGF-2+heparin at 37° C.) at 0.01%.
Each FGF-2 solution is diluted so as to be applied on the cells, the final FGF-2 concentrations being the following: 0.1, 0.25, 0.5, 0.75 and 1 ng/ml.
Normal human dermal fibroblasts were sown at low density in 6-well plates. They were then grown in a medium in the absence (control) or in the presence of FGF-2 at various concentrations.
After 48 hrs, the activity of intracellular acid phosphatases (PNPP) is dosed, so as to be able to evaluate the effect of FGF-2 solutions, either treated or not, on cell proliferation.
The results are expressed as a proliferation percentage relative to the control well i.e. to the non-treated well.
The same experiment was conducted by replacing heparin with extract 5c. The FGF-2 solution put into the presence of 0.5% of extract 5c is placed for 24 hrs at 37° C. The solution is then diluted so as to apply 0.5 ng/ml of FGF-2 in the wells containing the fibroblasts.
The 5c extract concentration finally applied on the cells is 0.0025%. It was checked beforehand that this 5c extract concentration was not capable of inducing stimulation of the proliferation of fibroblasts. This means that the observed stimulation of proliferation is actually due to the protection of FGF-2 by extract 5c (see Table 8).

normal human fibroblasts [4] = test: Stimulation of collagen synthesis, 3H-proline incorporation; assay type: cell-based; details: Vitamin C 20 μg/ml; 48 hrs
Experimental: A control was made in parallel with medium only. After 24 hrs of contact, radioactive […]-proline) is added to the medium. At the end of the experiment, the supernatants are collected for dosing the incorporation of radioactive […] into the intracellular proteins.

Chain of FGF-2 (P09038 143-288): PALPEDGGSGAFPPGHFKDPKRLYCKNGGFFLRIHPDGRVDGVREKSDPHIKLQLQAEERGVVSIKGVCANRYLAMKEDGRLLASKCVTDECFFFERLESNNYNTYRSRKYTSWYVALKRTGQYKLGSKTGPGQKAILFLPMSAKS

Molecule: TGF-β
% control, total GAGs (normal human fibroblasts [1]): 240% | Activity (cpm), total GAGs (normal human fibroblasts [1]): 2590 cpm | Ratio (act./Prot.), total GAGs (normal human fibroblasts [1]): 709 | % control, sulfated GAGs (normal human fibroblasts [2]): 176% | Activity (cpm), sulfated GAGs (normal human fibroblasts [2]): 5442 cpm | Ratio (act./Prot.), sulfated GAGs (normal human fibroblasts [2]): 1491

Molecule: Degraded FGF-2: solution of FGF-2 placed for 24 hrs at 37° C. in the absence of heparin
Proliferation (as a percentage) of fibroblasts relative to the non-treated control ([3]; FGF-2 0.5 ng/ml, 0.5% 5c extract during 24 hrs at 37° C. (0.0025% on the cells)): 123.7% ± 0.005 | Proliferation (expressed as percent relative to the non-treated well) ([3]; FGF-2 concentration 0.1 ng/ml): 96.2 ± 0.014% | Proliferation (expressed as percent relative to the non-treated well) ([3]; FGF-2 concentration 0.25 ng/ml): 111 ± 0.006% | Proliferation (expressed as percent relative to the non-treated well) ([3]; FGF-2 concentration 0.5 ng/ml): 123.7 ± 0.005% | Proliferation (expressed as percent relative to the non-treated well) ([3]; FGF-2 concentration 0.75 ng/ml): 132.5 ± 0.004% | Proliferation (expressed as percent relative to the non-treated well) ([3]; FGF-2 concentration 1 ng/ml): 146.4 ± 0.01%

Molecule: O=C1O[C@H]([C@@H](O)CO)C(O)=C1O [Vitamin C, vitamin C]
% control (collagen synthesis) (normal human fibroblasts [4]): 170% | cpm (3H-proline incorporation) (normal human fibroblasts [4]): 10185 cpm

B1: decorin: proteoglycan consisting of chondroitin sulfate and dermatan sulfate chains (protein, UniProt P07585 31-359, looked up)
Decorin: DEASGIGPEVPDDRDFEPSLGPVCPFRCQCHLRVVQCSDLGLDKVPKDLPPDTTLLDLQNNKITEIKDGDFKNLKNLHALILVNNKISKVSPGAFTPLVKLERLYLSKNQLKELPEKMPKTLQELRAHENEITKVRKVTFNGLNQMIVIELGTNPLKSSGIENGAFQGMKKLSYIRIADTNITSIPQGLPPSLTELHLDGNKISRVDAASLKGLNNLAKLGLSFNSISAVDNGSLANTPHLRELHLDNNKLTRVPGGLAEHKYIQVVYLHNNNISVVGSSDFCPPGHNTKKASYSGVSLFSNPVQYWEIQPSTFRCVYVRSAIQLGNYK
FGF-2 protection by GAGs and proteoglycans of the skin (in words) (FGF-2): inefficient

The remaining lines, values ahead:

FGF-2 protection by GAGs of the skin (FGF-2; chondroitin sulfate solutions at 0.1%): < 100% | FGF-2 protection by GAGs and proteoglycans of the skin (in words) (FGF-2): depends on its dose
Molecule: chondroitin sulfate

FGF-2 protection by GAGs and proteoglycans of the skin (in words) (FGF-2): protects FGF-2
Molecule: dermatan sulfate

FGF-2 protection by GAGs and proteoglycans of the skin (in words) (FGF-2): by no means allows FGF-2 to be protected
Molecule: hyaluronic acid [Hyaluronan]

FGF-2 protection by GAGs and proteoglycans of the skin (in words) (FGF-2): protects FGF-2
Molecule: heparan sulfate [Heparin sulfate]
